What was measured:
[1] = tested on: human prostate cancer LNCaP cells; test: Cytotoxic action on cancer cells (WST-8, 96 hr); format: cell-based; details: Homo sapiens, LNCaP, 96 h, read-out: LNCaP cytotoxic activity: IC50
Method: The cytotoxic action of the compound of the present invention against human cancer cells was evaluated in vitro. In this experiment, (+)-JQ1 (Nature volume 468, pages 1067-1073 (23 Dec. 2010)) known to have an inhibitory activity on the binding of BRD4 protein and a ligand therefor was used as a positive control drug. Respective cells were suspended in 10% FBS/RPMI1640, seeded in a 96 well plate and cultured at 5% CO2, 37° C. overnight. A test compound dissolved in DMSO was diluted with 10% FBS/RPMI1640 and added and the cells were further cultured for 96 hr. After culturing, the viable cell number was measured using a cell number measurement WST-8 kit (Kishida Chemical Co., Ltd.). As a control, the measurement was performed under conditions free of the test compound. The cytotoxic activity of the compound of the present invention against human prostate cancer LNCaP cells is shown in IC50 value in Table 1. […] It was calculated from the straight line connecting the cell survival rate at two points enclosing the 50% cell survival rate and the compound concentration. In addition, the cytotoxic activity against respective cancer cells of human acute myeloid leukemia MV-4-11 cell, human chronic myeloid leukemia K562 cell, human multiple myeloma MM.1S cell, human diffuse large B-cell lymphoma SU-DHL-6 cell, human T-cell leukemia Jurkat cells, human Burkitt lymphoma Raji cell, human castration-resistant prostate cancer PC-3 cell, human ovarian cancer A2780 cell, human bladder cancer 5637 cell, human breast cancer ZR-75-1 cell, human triple negative breast cancer MDA-MB-231 cell, human uterine sarcoma MES-SA cell, human gastric cancer SNU-16 cell, human non-small cell lung cancer NCI-H1975 cell, human small cell lung cancer NCI-H82 cell, human large cell lung cancer NCI-H460 cell, human colorectal cancer HCT116 cell, human glioma U-87 MG cell, human pancreatic cancer AsPC-1 cell, and human liver cancer Hep G2 cell is shown in IC50 value in Table 2.

BRD4 protein = BRD4 protein (Homo sapiens (Human), UniProt O60885); test: BRD4 protein degradation inducing action in cancer cells (immunofluorescence, Operetta); format: cell-based; details: LNCaP cells, 6 hr treatment, fluorescence intensity
Method: The degradation inducing action of the compound of the present invention on BRD4 protein in cancer cells was evaluated in vitro using human prostate cancer LNCaP cells. LNCaP cells were suspended in 10% FBS/RPMI1640, seeded in a 96 well Cell carrier plate (Perkin Elmer) and cultured at 5% CO2, 37° C. overnight. A test compound dissolved in DMSO was diluted with 10% FBS/RPMI1640 and added and the cells were further cultured for 6 hr. After culturing, the cells were immobilized with 4% para-formaldehyde/PBS and further subjected to a permeation treatment with 0.25% Triton X-100/PBS. Thereafter, the cells were blocked with 10% BSA/PBS, a solution containing Anti-Brd4 antibody (Abcam) or Anti-BRD4 (Sigma-Aldrich) as the primary antibody was added and the cells were incubated at 4° C. overnight. Thereafter, as the secondary antibody, a solution containing secondary antibody A shown below was added to Example compounds 1-190, 223 and 224, and a solution containing secondary antibody B shown below was added to Example compounds 191-222, and 0.5 μg/mL Hoechst 33342 (Sigma-Aldrich) and 14 μM Acti-Stain 555 Fluorescent Phalloidin (Cytoskeleton) were further added. After incubation for 1 hr, BRD4 protein amount was measured by Operetta (Perkin Elmer) as fluorescence intensity.
• Anti-Rabbit IgG(H+L), F(ab′)2 Fragment (Alexa Fluor 488 Conjugate) (Cell Signaling Technology), fluorescence intensity was measured at excitation: 495 nm, emission: 519 nm. Secondary Antibody B • Goat anti-Rabbit IgG(H+L) Cross-Adserbed Secondary Antibody (Alexa Fluor 546) (Thermo Fisher Scientific) fluorescence intensity was measured at excitation: 560 nm, emission: 572 nm.
The BRD4 protein degradation inducing activity of the compound of the present invention in LNCaP cells is shown in DC50 value in Table 3. The DC50 value is a concentration of the compound showing 50% fluorescence intensity when the fluorescence intensity thereof under compound untreated condition is 100%. It was calculated from the straight line connecting the fluorescence intensity at two points enclosing the 50% fluorescence intensity and the compound concentration.

SMILES	DC50 (BRD4 protein) [nM]	IC50 [1] [nM]
COC(=O)C[C@@H]1N=C(c2ccc(-c3ccc(NCC(=O)N[C@H](C(=O)N4C[C@H](O)C[C@H]4C(=O)N[C@@H](C)c4ccc(-c5scnc5C)cc4)C(C)(C)C)cc3)cc2)c2c(sc(C)c2C)-n2c(C)nnc21 [Example 45, methyl [(6S)-4-(4′-{[2-({(2S)-1-[(2S,4R)-4-hydroxy-2-({(1S)-1-[4-(4-methyl-1,3-thiazol-5-yl)phenyl]ethyl}carbamoyl)pyrrolidin-1-yl]-3,3-dimethyl-1-oxobutan-2-yl}amino)-2-oxoethyl]amino}[1,1′-biphenyl]-4-yl)-2,3,9-trimethyl-6H-thieno[3,2-f][1,2,4]triazolo[4,3-a] [1,4]diazepin-6-yl]acetate]	0.051	0.32
COC(=O)C[C@@H]1N=C(c2ccc(-c3ccc(OC(C)C(=O)N[C@H](C(=O)N4C[C@H](O)C[C@H]4C(=O)N[C@@H](C)c4ccc(-c5scnc5C)cc4)C(C)(C)C)cc3)cc2)c2c(sc(C)c2C)-n2c(C)nnc21 (stereo partly drawn) [Example 50, methyl [(6S)-4-(4′-{[1-({(2S)-1-[(2S,4R)-4-hydroxy-2-({(1S)-1-[4-(4-methyl-1,3-thiazol-5-yl)phenyl]ethyl}carbamoyl)pyrrolidin-1-yl]-3,3-dimethyl-1-oxobutan-2-yl}amino)-1-oxopropan-2-yl]oxy}[1,1′-biphenyl]-4-yl)-2,3,9-trimethyl-6H-thieno[3,2-f][1,2,4]triazolo[4,3-a] [1,4]diazepin-6-yl]acetate]	0.61	0.25
COC(=O)C[C@@H]1N=C(c2ccc(-c3ccc(SCC(=O)N[C@H](C(=O)N4C[C@H](O)C[C@H]4C(=O)N[C@@H](C)c4ccc(-c5scnc5C)cc4)C(C)(C)C)cc3)cc2)c2c(sc(C)c2C)-n2c(C)nnc21 [Example 53, methyl [(6S)-4-(4′-{[2-({(2S)-1-[(2S,4R)-4-hydroxy-2-({(1S)-1-[4-(4-methyl-1,3-thiazol-5-yl)phenyl]ethyl}carbamoyl)pyrrolidin-1-yl]-3,3-dimethyl-1-oxobutan-2-yl}amino)-2-oxoethyl]sulfanyl}[1,1′-biphenyl]-4-yl)-2,3,9-trimethyl-6H-thieno[3,2-f][1,2,4]triazolo[4,3-a] [1,4]diazepin-6-yl]acetate]	0.091	0.2
COC(=O)C[C@@H]1N=C(c2ccc(-c3cccc(C(=O)N[C@H](C(=O)N4C[C@H](O)C[C@H]4C(=O)N[C@@H](C)c4ccc(-c5scnc5C)cc4)C(C)(C)C)c3)cc2)c2c(sc(C)c2C)-n2c(C)nnc21 [Example 60, methyl {(6S)-4-[3′-({(2S)-1-[(2S,4R)-4-hydroxy-2-({(1S)-1-[4-(4-methyl-1,3-thiazol-5-yl)phenyl]ethyl}carbamoyl)pyrrolidin-1-yl]-3,3-dimethyl-1-oxobutan-2-yl}carbamoyl)[1,1′-biphenyl]-4-yl]-2,3,9-trimethyl-6H-thieno[3,2-f][1,2,4]triazolo[4,3-a][1,4]diazepin-6-yl}acetate]	0.74	0.12
COC(=O)C[C@@H]1N=C(c2ccc(-c3cccc(C(=O)N[C@H](C(=O)N4C[C@H](O)C[C@H]4C(=O)N[C@@H](C)c4ccc(-c5scnc5C)cc4)C(C)(C)C)n3)cc2)c2c(sc(C)c2C)-n2c(C)nnc21 [Example 113, methyl [(6S)-4-{4-[6-({(2S)-1-[(2S,4R)-4-hydroxy-2-({(1S)-1-[4-(4-methyl-1,3-thiazol-5-yl)phenyl]ethyl}carbamoyl)pyrrolidin-1-yl]-3,3-dimethyl-1-oxobutan-2-yl}carbamoyl)pyridin-2-yl]phenyl}-2,3,9-trimethyl-6H-thieno[3,2-f][1,2,4]triazolo[4,3-a][1,4]diazepin-6-yl]acetate]	0.075	0.096
COC(=O)C[C@@H]1N=C(c2ccc(-c3ccc(OC(F)(F)C(=O)N[C@H](C(=O)N4C[C@H](O)C[C@H]4C(=O)N[C@@H](C)c4ccc(-c5scnc5C)cc4)C(C)(C)C)cc3)cc2)c2c(sc(C)c2C)-n2c(C)nnc21 [Example 122, methyl [(6S)-4-{4′-[1,1-difluoro-2-({(2S)-1-[(2S,4R)-4-hydroxy-2-({(1S)-1-[4-(4-methyl-1,3-thiazol-5-yl)phenyl]ethyl}carbamoyl)pyrrolidin-1-yl]-3,3-dimethyl-1-oxobutan-2-yl}amino)-2-oxoethoxy][1,1′-biphenyl]-4-yl}-2,3,9-trimethyl-6H-thieno[3,2-f][1,2,4]triazolo[4,3-a][1,4]diazepin-6-yl]acetate]	0.097	0.4

Continued, in another order:

DC50 (BRD4 protein) [nM]	SMILES	IC50 [1] [nM]
0.45	COC(=O)C[C@@H]1N=C(c2ccc(Nc3cccc(OCC(=O)N[C@H](C(=O)N4C[C@H](O)C[C@H]4C(=O)N[C@@H](C)c4ccc(-c5scnc5C)cc4)C(C)(C)C)c3)cc2)c2c(sc(C)c2C)-n2c(C)nnc21 [Example 47, methyl [(6S)-4-(4-{3-[2-({(2S)-1-[(2S,4R)-4-hydroxy-2-({(1S)-1-[4-(4-methyl-1,3-thiazol-5-yl)phenyl]ethyl}carbamoyl)pyrrolidin-1-yl]-3,3-dimethyl-1-oxobutan-2-yl}amino)-2-oxoethoxy]anilino}phenyl)-2,3,9-trimethyl-6H-thieno[3,2-f][1,2,4]triazolo[4,3-a][1,4]diazepin-6-yl]acetate]	0.42
0.24	COC(=O)C[C@@H]1N=C(c2ccc(-c3ccc(OCC(=O)N[C@H](C(=O)N4C[C@H](O)C[C@H]4C(=O)N[C@@H](C)c4ccc(-c5scnc5C)cc4)C(C)(C)C)cc3C)cc2)c2c(sc(C)c2C)-n2c(C)nnc21 [Example 49, methyl [(6S)-4-{4′-[2-({(2S)-1-[(2S,4R)-4-hydroxy-2-({(1S)-1-[4-(4-methyl-1,3-thiazol-5-yl)phenyl]ethyl}carbamoyl)pyrrolidin-1-yl]-3,3-dimethyl-1-oxobutan-2-yl}amino)-2-oxoethoxy]-2′-methyl[1,1′-biphenyl]-4-yl}-2,3,9-trimethyl-6H-thieno[3,2-f][1,2,4]triazolo[4,3-a] [1,4]diazepin-6-yl]acetate]	0.12
0.11	COC(=O)C[C@@H]1N=C(c2ccc(-c3ccc(OCC(=O)N[C@H](C(=O)N4C[C@H](O)C[C@H]4C(=O)N[C@@H](C)c4ccc(-c5scnc5C)cc4)C(C)(C)C)nc3)cc2)c2c(sc(C)c2C)-n2c(C)nnc21 [Example 63, methyl [(6S)-4-(4-{6-[2-({(2S)-1-[(2S,4R)-4-hydroxy-2-({(1S)-1-[4-(4-methyl-1,3-thiazol-5-yl)phenyl]ethyl}carbamoyl)pyrrolidin-1-yl]-3,3-dimethyl-1-oxobutan-2-yl}amino)-2-oxoethoxy]pyridin-3-yl}phenyl)-2,3,9-trimethyl-6H-thieno[3,2-f][1,2,4]triazolo[4,3-a][1,4]diazepin-6-yl]acetate]	0.037
0.6	COC(=O)C[C@@H]1N=C(c2ccc(-c3cc(C(=O)N[C@H](C(=O)N4C[C@H](O)C[C@H]4C(=O)N[C@@H](C)c4ccc(-c5scnc5C)cc4)C(C)(C)C)ccc3F)cc2)c2c(sc(C)c2C)-n2c(C)nnc21 [Example 106, methyl {(6S)-4-[2′-fluoro-5′-({(2S)-1-[(2S,4R)-4-hydroxy-2-({(1S)-1-[4-(4-methyl-1,3-thiazol-5-yl)phenyl]ethyl}carbamoyl)pyrrolidin-1-yl]-3,3-dimethyl-1-oxobutan-2-yl}carbamoyl)[1,1′-biphenyl]-4-yl]-2,3,9-trimethyl-6H-thieno[3,2-f][1,2,4]triazolo[4,3-a][1,4]diazepin-6-yl}acetate]	0.58
